Literature values, collected in EP1017727B1, “COMPOSITION AND PHARMACEUTICAL PREPARATION CONTAINING SAME FOR THE TREATMENT OF HERPES AND RELATED VIRAL INFECTIONS” (priority 1997, dated 1999).
Values after ≈ are worked out from the molar mass of the structure shown.

Test system: HSV-1

Molecule	IC50 against HSV-1
O=Cc1cc(O)c(O)c(O)c1 [gallic aldehyde]	12.5 µg/mL (≈ 81.1 µM)
geponin	25 µg/mL
